Patent EP2292587A1, “PHARMACEUTICAL COMPOSITION FOR INHIBITING THE TRANSCRIPTION FACTOR INDUCIBLE BY HYPOXIA, MODULATORS OF PATHOLOGICAL PROCESSES OF ANGIOGENESIS, ONCOGENESIS, INFLAMMATION, APOPTOSIS, AND CELLULAR THERAPY” (Fundacion De La Comunidad Valenciana Centro De …, priority 2008, dated 2009)

Key:
[1] = test system: epSPCs; experiment: differentiation of epSPCs into oligodendrocytes (immunocytochemistry); assay type: cell-based, rat; conditions: 500 nM, 1% O2
Description: The hypoxic condition blocks stem cell differentiation, and it is well acknowledged that this process is due to the activity of the HIF proteins. The exposure of ependymal stem cells to a low concentration of oxygen (1% O2) prevents the progress of differentiation aimed at the oligodendrocyte glial strain, clearly shown by both the morphological characteristics of the culture and by the low expression of typical markers of this cell strain (NG2, RIP, 04).
The analysis of the expression of the cell markers Rip, NG2 and 04 in the presence or absence of FM19G11 under normoxic and/or hypoxic conditions was carried out by immunocytochemical techniques (Figure 15). After fixing the cell culture with paraformaldehyde (4%), it was permeabilized with Triton (0.05%) for 10 minutes, and after blocking non-specific bindings with fetal bovine serum (1%), it was incubated with the corresponding antibodies (acquired from Chemicon, USA). Secondary antibodies conjugated with different fluorochromes, rhodamine in rabbit IgG and fluorescein in mouse IgG, reveal the specific labeling of the primary antibodies. DAPI (Sigma Aldrich Co, UK) was used for the counterstaining of the nuclei.

[2] = test system: AKT/mTOR/p70S6/Cyclin D1 signaling pathway; experiment: activation kinetics of mTOR signaling pathway, HCT116/p53+/+; assay type: cell-based, human; conditions: 0.5 µM
Protocol: Due to the crucial role of p53 as a tumor-suppressing agent, it was analyzed in HCT116 cells how FM19G11 affected the activation kinetics of proteins involved in favoring cell cycle progress, specifically the mTOR cell signaling pathway. An increase of cell progress can be due to replicative stress which generates DNA damage (Bartkova, J, Horejsi, Z, Koed, K, Kramer, A, Tort, F, Zieger, K et al., (2005) DNA damage response as a candidate anti-cancer barrier in early human tumorigenesis. Nature 434: 864-70; Bartkova, J, Rezaei, N, Liontos, M, Karakaidos, P, Kletsas, D, Issaeva, N et al., (2006) Oncogene-induced senescence is part of the tumorigenesis barrier imposed by DNA damage checkpoints. Nature 444: 633-7; Di Micco, R, Fumagalli, M, Cicalese, A, Piccinin, S, Gasparini, P, Luise, C et al., (2006) Oncogene-induced senescence is a DNA damage response triggered by DNA hyper-replication. Nature 444: 638-42), it was explored if the DDR triggered by FM19G11 was related to an increase of the cell cycle progress signal modulated by the mTOR signaling pathway. […]

[3] = test system: HCT116/p53-/- cells; experiment: cell viability by ATP quantification in colon cancer cells; assay type: cell-based, human; conditions: 48 hours, 0.5-1000 µM
Protocol: To determine the effects of FM19G11 on human colon cancer cells (HCT116 and HT29), cell viability assays were carried out in HT29, HCT116/p53^+/+ and HCT116/p53^-/- cells by means of quantifying the ATP which associates with metabolically active cells.

[4] = test system: HT29; experiment: clonicity assay, HT29; assay type: cell-based; conditions: Homo sapiens, HT-29; stimulated 72 hours, colonies counted after 10 days; read-out: survival IC50
Protocol: Clonicity assays were conducted to determine the toxicity of FM19G11 in p53-proficient (HT29 and HCT116/p53^+/+) and p53-deficient (HCT116/p53^-/-) tumor cells. Once the HT-29, HCT116/p53^+/+ and HCT116/p53^-/- cells were adhered to the culture plate, they were stimulated with increasing concentrations of FM19G11 (0.5, 1, 5, 10, 20, 50 µM) for 72 hours. After 10 days of stimulation, the number of colonies formed in the plates of treated and untreated cells was determined.
Results of the clonicity assays of HT29 human colon cancer cells, HCT116 cells treated with FM19G11 were monitored up to 10 after the treatment (Figure 28). The IC50 was determined by extrapolating the percentage with the concentration. FM19G11 was used at concentrations: 0.5, 1, 5, 10, 50, 100, 200 µM

[5] = test system: HCT116/p53+/+; experiment: anchorage-independent growth in semisolid agar, HCT116/p53+/+; assay type: cell-based, human; conditions: 0.5 µM, 10 days, versus DMSO, p ≤ 0.033
Protocol: (§1) Anchorage-independent cell growth is a study which allows predicting the tumorigenicity of tumor cells in vivo. Anchorage-independent cell growth studies were performed for HT29, HCT116/p53^+/+ and HCT116/p53^-/- cells in semisolid agar which were monitored daily to determine the efficiency of the formation of colonies in the presence of carrier (DMSO) or FM19G11. To that end, the starting material was 75 x 10^3 cells suspended in semisolid agar, which were maintained until 10 days later. […] A reduction of the formation of colonies in the HCT116/p53^-/- cells is not observed. The growth of colonies was quantified in three independent experiments by means of counting colonies in the 4 x magnification optical field of an inverted optical microscope.

[6] = test system: HCT116/p53-/-; experiment: anchorage-independent growth in semisolid agar, HCT116/p53-/-; assay type: cell-based, human; conditions: 0.5 µM, 10 days, versus DMSO
Protocol: as §1

[7] = test system: mouse neurospheres (neural stem cells); experiment: microsatellite genomic instability in neurospheres; assay type: cell-based
Protocol: By using specific fluorescence-labeled primers for microsatellite sequence markers, the genomic stability of neurospheres in normoxia (Nx), hypoxia (Hx) or hypoxia+FM19G11 (Hx+19G11) was analyzed. […] The treatment with FM19G11 enabled the recovery of the normoxia profiles (used as a reference or control), thus preventing the genomic instability caused by hypoxia.

## Cc1ccc(C(=O)COC(=O)c2cccc(NC(=O)c3ccc([N+](=O)[O-])cc3[N+](=O)[O-])c2)cc1 [FM19G11, 2-oxo-2-(p-tolyl)ethyl 3-((2,4-dinitro)benzamido)benzoate]
[1]
  expression levels of the oligodendrocyte markers (NG2, RIP, 04) and phenotype: recovers the expression levels
[2]
  activation of the AKT/mTOR/p70S6/Cyclin D1 signaling pathway (fold change): ≥ 2
[3]
  sensitivity (cell viability, ATP) compared to HCT116/p53+/+ or HT29: less sensitive
[4]
  IC50: 1 µM
[5]
  growth of colonies in semisolid agar: significant decrease
[6]
  reduction of the formation of colonies in semisolid agar: not observed
[7]
  genomic instability caused by hypoxia (microsatellite markers mBAT59, mBAT67): prevented
